Results on 65 compounds are retold here after ChEMBL document CHEMBL4014333, “Discovery of Small Molecules for Repressing Cap-Independent Translation of Human Vascular Endothelial Growth Factor (hVEGF) as Novel Antitumor Agents” (J Med Chem, 2017).

The species entered for assay [1] is Homo sapiens. Description: Binding affinity to biotin-labeled human wild type internal ribosome entry site A RNA G-quadruplex by SPR analysis. A general note: SPR reads the build-up and loss of mass on a sensor chip optically.
The nature of assay [2]: Binding affinity to biotin-labeled DNA hairpin (unknown origin) by SPR analysis.
For assay [3], the species on record is Homo sapiens. The assay can be described thus: Binding affinity to biotin-labeled human 5'-UGAUGAGUGUGAGGAGGA-3' RNA G-quadruplex by SPR analysis.

Structures are written as SMILES. Calls of active or inactive are those of the source. No rule for the calls is given here. Numbered stars: 1 amine (or outer) side, 2 acyl side, 3 side chain; on linkers, the order of the positions; unused ones are H or OH. Square brackets hold non-standard residues; d marks the D form. Peptide text beside a SMILES is read from it. X1 = CN1CCC(COc2ccc3oc4c(N(CC(=O)[*:2])[*:1])c5ccccc5nc4c3c2)CC1

Take `CC(NC(=O)C(CCCNC(=N)N)NC(=O)CNC(=O)CNc1c2ccccc2nc2c1oc1ccc(OCC3CCN(C)CC3)cc12)C(=O)O` (centres undefined): the outcome in the assay filed under Homo sapiens [1] was Active.
Still for that read-out and setting: then `COc1ccc2cc3[n+](cc2c1NCCO)CCc1cc2c(cc1-3)OCO2`, with “Active”.
In the case of `CN(C)CCCNc1c2ccccc2nc2c1oc1ccc(OCC3CCN(C)CC3)cc12`, the result in the assay filed under Homo sapiens [1] was Active.
Still for that read-out and setting: then `CN1CCC(COc2ccc3oc4c(NCC(=O)NCC(=O)NC(CCCNC(=N)N)C(=O)NC(Cc5c[nH]c6ccccc56)C(=O)O)c5ccccc5nc4c3c2)CC1` (centres undefined), with “Active”; and `COc1ccc2cc3[n+](cc2c1OCCCn1cc[n+](C)c1)CCc1cc2c(cc1-3)OCO2`, with “Active”; and `COc1ccc2cc3[n+](cc2c1OCCCCCC[n+]1ccccc1)CCc1cc2c(cc1-3)OCO2`, with “Active”.
Still for that read-out and setting: then `COc1ccc2cc3[n+](cc2c1NCCCCCCN)CCc1cc2c(cc1-3)OCO2`, with “Active”.
Regarding `C[n+]1c2ccccc2c(NCCN2CCCCC2)c2oc3ccc(OCC[N+]4(C)CCCCC4)cc3c21`, the result (in assay [2]; in the assay listed under Homo sapiens [1]; in the assay filed under Homo sapiens [3]) was Active.
For the compound `C[n+]1c2ccccc2c(NCCN2CCCCC2)c2oc3ccc(OCC(=O)NCCN4CCCCC4)cc3c21`, the outcome (in assay [2]; in the assay filed under Homo sapiens [1]; in the assay filed under Homo sapiens [3]) was Active.
Regarding `C[n+]1c2ccccc2c(NCC(=O)NCC(=O)NC(Cc2ccccc2)C(=O)O)c2oc3ccccc3c21` (centres undefined), the outcome (in assay [2]; in the assay listed under Homo sapiens [1]; in the assay listed under Homo sapiens [3]) was Active.
On to `COc1ccc2cc3[n+](cc2c1OCCCN)CCc1cc2c(cc1-3)OCO2`, for which the outcome in the assay listed under Homo sapiens [1] was Active.
As for `COc1ccc2cc3[n+](cc2c1OCCC[n+]1ccc(N(C)C)cc1)CCc1cc2c(cc1-3)OCO2`, in the assay filed under Homo sapiens [1], the outcome was Active.
Turning to `C[n+]1c2ccccc2c(NCCCN2CCOCC2)c2oc3ccc(OCCC[N+](C)(C)C)cc3c21`, the outcome (in assay [2]; in the assay filed under Homo sapiens [1]; in the assay listed under Homo sapiens [3]) was Active.
Take `CN(C)CCCNC(=O)COc1ccc2oc3c(NCCCN(C)C)c4ccccc4[n+](C)c3c2c1`: the result (in assay [2]; in the assay listed under Homo sapiens [1]; in the assay filed under Homo sapiens [3]) was Active.
Consider `C[n+]1c2ccccc2c(NCCN2CCCCC2)c2oc3ccc(OCC[N+](C)(C)C)cc3c21`, for which the result (in assay [2]; in the assay listed under Homo sapiens [1]; in the assay filed under Homo sapiens [3]) was Active.
On to `CN1CCC(COc2ccc3oc4c(NCC(=O)NCC(=O)NCC(=O)O)c5ccccc5nc4c3c2)CC1`, for which the result in the assay filed under Homo sapiens [1] was Active.
Take `C[n+]1c2ccccc2c(NCCN2CCCCC2)c2oc3ccc(OCC[N+]4(C)CCOCC4)cc3c21`: the result (in assay [2]; in the assay filed under Homo sapiens [1]; in the assay listed under Homo sapiens [3]) was Active.
For the compound `C[n+]1c2ccccc2c(NCC(=O)NC(CCCCN)C(=O)NC(CCCNC(=N)N)C(=O)O)c2oc3ccccc3c21` (centres undefined), in the assay listed under Homo sapiens [1], the outcome was Active.
Consider `COc1ccc2cc3[n+](cc2c1NCCCN1CCCC1)CCc1cc2c(cc1-3)OCO2`, for which the result (in assay [2]; in the assay filed under Homo sapiens [1]; in the assay filed under Homo sapiens [3]) was Active.
As for `CCN(CC)CCCNc1c2ccccc2[n+](C)c2c1oc1ccc(OCC[N+]3(C)CCCCC3)cc12`, the outcome (in assay [2]; in the assay listed under Homo sapiens [1]; in the assay listed under Homo sapiens [3]) was Active.
`C[n+]1c2ccccc2c(NCC(=O)NCC(=O)NC(Cc2c[nH]cn2)C(=O)O)c2oc3ccccc3c21` (centres undefined): the result in the assay filed under Homo sapiens [1] was Active.
For the compound `CN(C)CCCNc1c2ccccc2nc2c1oc1cc(OCCCN(C)C)ccc12`, the result (in assay [2]; in the assay listed under Homo sapiens [1]; in the assay listed under Homo sapiens [3]) was Active.
In the case of `COc1ccc2cc3[n+](cc2c1NCCN(C)C)CCc1cc2c(cc1-3)OCO2`, the result in the assay listed under Homo sapiens [1] was Active.
On to `CN(C)CCCNc1c2ccccc2nc2c1oc1c(OCCN(C)C)cccc12`, for which the outcome in the assay filed under Homo sapiens [1] was Active.
Regarding `CCN(CC)CCNc1c2ccccc2[n+](C)c2c1oc1ccc(OCC[N+]3(C)CCOCC3)cc12`, the outcome (in assay [2]; in the assay listed under Homo sapiens [1]; in the assay filed under Homo sapiens [3]) was Active.
For the compound `CN1CCC(COc2ccc3oc4c(NCC(=O)NCC(=O)NC(CCCNC(=N)N)C(=O)NC(CCCNC(=N)N)C(=O)NCC(=O)O)c5ccccc5nc4c3c2)CC1` (centres undefined) (H-[X1]GRRG-OH; configuration not given here), the result (in assay [2]; in the assay filed under Homo sapiens [1]; in the assay filed under Homo sapiens [3]) was Active.
For `CCN(CC)CCOc1ccc(Nc2nc(-c3ccccc3NC(=O)CCCl)nc3ccccc23)cc1`, in the assay filed under Homo sapiens [1], the result was Active.
The same measure, in the same setting: the same measure for `C[n+]1c2ccccc2c(NCC(=O)NCC(=O)NC(CCCCN)C(=O)O)c2oc3ccccc3c21` (centres undefined): “Active”.
Turning to `COc1ccc2cc3[n+](cc2c1OCCC[n+]1cccc(F)c1)CCc1cc2c(cc1-3)OCO2`, in the assay filed under Homo sapiens [1], the result was Active.
Same read-out and setting: then `COc1ccc2cc3[n+](cc2c1NCCN1CCCCC1)CCc1cc2c(cc1-3)OCO2`, with “Active”; and `C[n+]1c2ccccc2c(NCC(=O)NC(CCCNC(=N)N)C(=O)O)c2oc3ccccc3c21` (centres undefined), with “Active”.
For the compound `CN(C)CCNc1c2ccccc2[n+](C)c2c1[nH]c1cc(F)c(F)cc12`, in the assay listed under Homo sapiens [1], the outcome was Active.
Consider `CN1CCC(COc2ccc3oc4c(NCC(=O)NCC(=O)NC(CCCNC(=N)N)C(=O)NC(Cc5ccc(O)cc5)C(=O)O)c5ccccc5nc4c3c2)CC1` (centres undefined), for which the outcome in the assay listed under Homo sapiens [1] was Active.
Same read-out and setting: then `CN(C)CCCNc1c2ccccc2nc2c1oc1cc(OCCN(C)C)ccc12`, with “Active”; and `COc1ccc2cc3[n+](cc2c1OCCCCC[n+]1ccccc1)CCc1cc2c(cc1-3)OCO2`, with “Active”; and `CN1CCC(COc2ccc3oc4c(NCC(=O)NC(Cc5c[nH]cn5)C(=O)NC(CCCNC(=N)N)C(=O)O)c5ccccc5nc4c3c2)CC1` (centres undefined), with “Active”.
In the case of `C[n+]1c2ccccc2c(NCCCN2CCOCC2)c2oc3ccc(OCC[N+]4(C)CCCCC4)cc3c21`, in the assay filed under Homo sapiens [1], the outcome was Active.
Same read-out and setting: then `C[n+]1c2ccccc2c(NCCCN2CCCCC2)c2oc3ccc(OCC(=O)NCCCN4CCCCC4)cc3c21`, with “Active”.
On the same count and under the same terms, then `CN(C)CCNC(=O)COc1ccc2oc3c(NCCN(C)C)c4ccccc4[n+](C)c3c2c1`, with “Active”; and `CN(C)CCCNc1c2ccccc2[n+](C)c2c1[nH]c1ccccc12`, with “Active”; and `CN1CCC(COc2ccc3oc4c(NCC(=O)NCC(=O)NC(CCCCN)C(=O)O)c5ccccc5nc4c3c2)CC1` (centres undefined), with “Active”.
On the same count and under the same terms, the same measure for `COc1ccc2cc3[n+](cc2c1OCCN)CCc1cc2c(cc1-3)OCO2`: “Active”.
On to `C[n+]1c2ccccc2c(NCCN2CCOCC2)c2oc3ccc(OCC(=O)NCCN4CCOCC4)cc3c21`, for which the outcome in the assay filed under Homo sapiens [1] was Active.
On to `COc1ccc2cc3[n+](cc2c1OCCCn1ccc(N)nc1=O)CCc1cc2c(cc1-3)OCO2`, for which the result in the assay listed under Homo sapiens [1] was Active.
Still for that read-out and setting: then `COc1ccc2cc3[n+](cc2c1OCCCOc1ccncc1)CCc1cc2c(cc1-3)OCO2`, with “Active”.
For the compound `O=C1/C(=C\c2ccc(N3CCOCC3)cc2)CC/C1=C\c1cccnc1`, the outcome in the assay filed under Homo sapiens [1] was Active.
Regarding `COc1ccc2cc3[n+](cc2c1NCCN1CCOCC1)CCc1cc2c(cc1-3)OCO2`, the result in the assay listed under Homo sapiens [1] was Active.
On the same count and under the same terms, then `CCN(CC)CCOc1ccc(Nc2nc(-c3ccccc3N)nc3ccccc23)cc1`, with “Active”; and `CN(C)CCCNc1c2ccccc2nc2c1oc1ccc(OCCCN(C)C)cc12`, with “Active”.
Same read-out and setting: the same measure for `COc1ccc2cc3[n+](cc2c1OCCC[n+]1cccc(C)c1)CCc1cc2c(cc1-3)OCO2`: “Active”; for `CN1CCC(COc2ccc3oc4c(NCC(=O)NCC(=O)NC(CCCNC(=N)N)C(=O)NC(Cc5c[nH]cn5)C(=O)O)c5ccccc5nc4c3c2)CC1` (centres undefined): “Active”.
Consider `CN(C)CCNc1c2ccccc2nc2c1oc1ccc(OCCN(C)C)cc12`, for which, in the assay listed under Homo sapiens [1], the outcome was Active.
On the same count and under the same terms, the same measure for `CN1CCC(COc2ccc3oc4c(NCC(=O)NCC(=O)NC(CCCNC(=N)N)C(=O)NC(Cc5c[nH]cn5)C(=O)NCC(=O)O)c5ccccc5nc4c3c2)CC1` (centres undefined) (H-[X1]GRHG-OH; configuration not given here): “Active”; for `CN1CCC(COc2ccc3oc4c(NCC(=O)NCC(=O)NC(CCCNC(=N)N)C(=O)NC(Cc5ccccc5)C(=O)O)c5ccccc5nc4c3c2)CC1` (centres undefined): “Active”.
Same read-out and setting: the same measure for `CN(C)CCCCOc1cccc2c1oc1c(NCCCN(C)C)c3ccccc3nc12`: “Active”; for `C[n+]1c2ccccc2c(NCCO)c2[nH]c3ccccc3c21`: “Active”; for `CN1CCC(COc2ccc3oc4c(NCC(=O)NC(CCCCN)C(=O)NC(CCCNC(=N)N)C(=O)O)c5ccccc5nc4c3c2)CC1` (centres undefined): “Active”.
Same read-out and setting: then `C[n+]1c2ccccc2c(NCC(=O)NC(Cc2ccccc2)C(=O)NC(CCCNC(=N)N)C(=O)O)c2oc3ccccc3c21` (centres undefined), with “Active”.
`COc1ccc2cc3[n+](cc2c1OCCC[n+]1ccccc1)CCc1cc2c(cc1-3)OCO2`: the outcome in the assay listed under Homo sapiens [1] was Active.
Turning to `CN1CCC(COc2ccc3oc4c(NCC(=O)NCC(=O)NC(Cc5c[nH]cn5)C(=O)O)c5ccccc5nc4c3c2)CC1` (centres undefined), the result in the assay listed under Homo sapiens [1] was Active.
On the same count and under the same terms, the same measure for `CN1CCC(COc2ccc3oc4c(NCC(=O)NCC(=O)NC(CCCNC(=N)N)C(=O)NC(CCC(=O)O)C(=O)O)c5ccccc5nc4c3c2)CC1` (centres undefined): “Active”; for `CN(C)CCCNc1c2ccccc2nc2c1oc1ccc(OCCN(C)C)cc12`: “Active”; for `C[n+]1c2ccccc2c(NCCCN2CCOCC2)c2oc3ccc(OCC(=O)NCCN4CCOCC4)cc3c21`: “Active”.
On to `CN1CCC(COc2ccc3oc4c(NCC(=O)NCC(=O)NC(CCCNC(=N)N)C(=O)NC(CCC(N)=O)C(=O)O)c5ccccc5nc4c3c2)CC1` (centres undefined), for which the outcome in the assay filed under Homo sapiens [1] was Active.
`CN1CCC(COc2ccc3oc4c(NCC(=O)NCC(=O)NC(CCCNC(=N)N)C(=O)O)c5ccccc5nc4c3c2)CC1` (centres undefined): the result in the assay filed under Homo sapiens [1] was Active.
